The record followed here is ChEMBL document CHEMBL1921788, “Development of melanoma-targeted polymer micelles by conjugation of a melanocortin 1 receptor (MC1R) specific ligand” (J Med Chem, 2011).

Non-standard residues stand in square brackets, D forms with d. Residues, ends and D or L forms follow the SMILES beside them. d2Nal = N[C@H](Cc1ccc2ccccc2c1)C(=O)O; Nle = CCCC[C@H](N)C(=O)O

The assay concerns HEK293. Description: Selectivity ratio of Ki for human MC5 receptor expressed in human HEK293 cells to Ki for human MC1 receptor expressed in human HCT116 cells. It counts as cell-based.

Regarding `CCCC[C@H](NC(=O)[C@@H](NC(=O)[C@@H](N)Cc1ccc(O)cc1)C(C)C)C(=O)NCC(=O)N[C@@H](Cc1cnc[nH]1)C(=O)N[C@H](Cc1ccc2ccccc2c1)C(=O)N[C@@H](CCCNC(=N)N)C(=O)N[C@H](Cc1ccccc1)C(=O)N[C@@H](CC(=O)O)C(=O)N[C@@H](CCCNC(=N)N)C(=O)N[C@@H](Cc1ccccc1)C(=O)NCC(N)=O` (H-YV[Nle]GH[d2Nal]R[dF]DRFG-NH2), the Ratio Ki worked out at 0.13.
